Ten molecules from ChEMBL document CHEMBL1139649, “Hetaryl imidazoles: a novel dual inhibitors of VEGF receptors I and II” (Bioorg Med Chem Lett, 2006) can be followed below.

Series [1] concerns the target Insulin-like growth factor 1 receptor (Homo sapiens) (UniProt P08069). The series can be described thus: […] against IGF1R at 10 uM by HTRF method. (Time-resolved FRET reads energy transfer from a long-lived donor to a nearby acceptor.)
The target in series [2] is T1, Vascular endothelial growth factor receptor 2 (Homo sapiens, UniProt P35968). The experiment in a line: Inhibition of VEGFR2 by enzymatic assay.
The target in series [3] is Vascular endothelial growth factor receptor 1 (Homo sapiens, UniProt P17948). The experiment in a line: Inhibition of VEGFR1 by enzymatic assay.
Series [4] has as its target T1, Vascular endothelial growth factor receptor 2. The experiment in a line: Inhibition of VEGFR2 in 293 adenovirus transfected kidney cells by cell-based ELISA assay. Background: An ELISA detects its analyte on a solid surface through an enzyme-linked reagent.
Series [5] is described as follows: Solubility in water. It counts as physicochemical.
Series [6] has as its target Receptor-type tyrosine-protein kinase FLT3 (Homo sapiens) (UniProt P36888). The experiment in a line: Inhibition of Flt3 at 10 uM by HTRF method. Also noted: scale not given: the % may be the effect or the level left.
For series [7], the target named is Epidermal growth factor receptor (Homo sapiens) (UniProt P00533). The series can be described thus: […] against ErbB1 at 10 uM by HTRF method.
Series [8] has as its target Receptor tyrosine-protein kinase erbB-2 (Homo sapiens) (UniProt P04626). The series can be described thus: […] against ErbB2 at 10 uM by HTRF method.
In series [9] the target is T2, Ephrin type-B receptor 4 (Homo sapiens) (UniProt P54760).
T2 sequence (whole entry): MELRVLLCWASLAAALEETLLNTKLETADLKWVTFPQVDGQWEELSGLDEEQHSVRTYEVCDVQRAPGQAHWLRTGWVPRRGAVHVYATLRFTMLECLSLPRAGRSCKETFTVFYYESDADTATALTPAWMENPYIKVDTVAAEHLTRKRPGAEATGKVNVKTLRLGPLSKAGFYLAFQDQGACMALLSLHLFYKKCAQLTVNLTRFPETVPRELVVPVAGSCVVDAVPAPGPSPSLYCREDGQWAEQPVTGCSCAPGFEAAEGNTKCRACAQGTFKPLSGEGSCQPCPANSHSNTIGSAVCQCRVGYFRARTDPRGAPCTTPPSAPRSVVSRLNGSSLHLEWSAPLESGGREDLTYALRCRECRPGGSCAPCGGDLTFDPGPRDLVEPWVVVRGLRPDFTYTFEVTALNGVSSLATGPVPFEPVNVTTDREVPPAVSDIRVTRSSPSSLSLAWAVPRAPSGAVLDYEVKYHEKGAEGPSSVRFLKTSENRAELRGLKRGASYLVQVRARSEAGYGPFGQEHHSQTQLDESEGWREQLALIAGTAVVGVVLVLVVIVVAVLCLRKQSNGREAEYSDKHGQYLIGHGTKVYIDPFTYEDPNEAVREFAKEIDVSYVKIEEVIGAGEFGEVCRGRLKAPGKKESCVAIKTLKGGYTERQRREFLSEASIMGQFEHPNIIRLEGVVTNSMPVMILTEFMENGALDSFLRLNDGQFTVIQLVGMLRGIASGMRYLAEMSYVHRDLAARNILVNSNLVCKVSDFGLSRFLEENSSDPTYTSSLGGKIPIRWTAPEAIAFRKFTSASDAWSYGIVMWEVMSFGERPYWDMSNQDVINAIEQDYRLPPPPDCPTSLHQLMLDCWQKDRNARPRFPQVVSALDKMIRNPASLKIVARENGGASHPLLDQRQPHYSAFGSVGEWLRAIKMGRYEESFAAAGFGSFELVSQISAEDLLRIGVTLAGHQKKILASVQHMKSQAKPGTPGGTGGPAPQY
The series can be described thus: Percent inhibition against EphB4 at 10 uM by HTRF method. Details: scale not given: the % may be the effect or the level left.

The target in series [10] is Hepatocyte growth factor receptor (Homo sapiens) (UniProt P08581). The experiment in a line: Percent inhibition against c-Met at 10 uM by HTRF method. Also noted: scale not given: the % may be the effect or the level left.
Series [11] addresses cAMP-dependent protein kinase (PKA) (Homo sapiens) (UniProt P22694+P17612+P22612). The experiment in a line: Inhibition against PKA at 10 uM by HTRF method. It counts as protein assay. Details: scale not given: the % may be the effect or the level left.
The target in series [12] is Glycogen synthase kinase-3 beta (Homo sapiens) (UniProt P49841). The experiment in a line: Inhibition against GSK3-beta at 10 uM by HTRF method. Also noted: scale not given: the % may be the effect or the level left.
Series [13] addresses RAC-alpha serine/threonine-protein kinase (Homo sapiens) (UniProt P31749). The experiment in a line: […] against PKB/Akt at 10 uM by HTRF method.
Series [14] addresses Bcr/Abl fusion protein (Homo sapiens) (UniProt P00519+P11274). The experiment in a line: Inhibition of bcr-Abl at 10 uM by HTRF method. It counts as protein assay. Also noted: scale not given: the % may be the effect or the level left.
The target of series [15] is Cyclin-dependent kinase 2 (Homo sapiens) (UniProt P24941). The series can be described thus: […] against Cdk2 at 10 uM by HTRF method.
Series [16] deals with Cyclin-dependent kinase 5 (Homo sapiens) (UniProt Q00535). The series can be described thus: […] against Cdk5 at 10 uM by HTRF method.
Series [17] addresses Fibroblast growth factor receptor 1 (Homo sapiens) (UniProt P11362). The experiment in a line: Percent inhibition against FGFR1 at 10 uM by HTRF method. Also noted: scale not given: the % may be the effect or the level left.

Sequence of Fibroblast growth factor receptor 1 (Homo sapiens) (P11362 22-822 limits assumed): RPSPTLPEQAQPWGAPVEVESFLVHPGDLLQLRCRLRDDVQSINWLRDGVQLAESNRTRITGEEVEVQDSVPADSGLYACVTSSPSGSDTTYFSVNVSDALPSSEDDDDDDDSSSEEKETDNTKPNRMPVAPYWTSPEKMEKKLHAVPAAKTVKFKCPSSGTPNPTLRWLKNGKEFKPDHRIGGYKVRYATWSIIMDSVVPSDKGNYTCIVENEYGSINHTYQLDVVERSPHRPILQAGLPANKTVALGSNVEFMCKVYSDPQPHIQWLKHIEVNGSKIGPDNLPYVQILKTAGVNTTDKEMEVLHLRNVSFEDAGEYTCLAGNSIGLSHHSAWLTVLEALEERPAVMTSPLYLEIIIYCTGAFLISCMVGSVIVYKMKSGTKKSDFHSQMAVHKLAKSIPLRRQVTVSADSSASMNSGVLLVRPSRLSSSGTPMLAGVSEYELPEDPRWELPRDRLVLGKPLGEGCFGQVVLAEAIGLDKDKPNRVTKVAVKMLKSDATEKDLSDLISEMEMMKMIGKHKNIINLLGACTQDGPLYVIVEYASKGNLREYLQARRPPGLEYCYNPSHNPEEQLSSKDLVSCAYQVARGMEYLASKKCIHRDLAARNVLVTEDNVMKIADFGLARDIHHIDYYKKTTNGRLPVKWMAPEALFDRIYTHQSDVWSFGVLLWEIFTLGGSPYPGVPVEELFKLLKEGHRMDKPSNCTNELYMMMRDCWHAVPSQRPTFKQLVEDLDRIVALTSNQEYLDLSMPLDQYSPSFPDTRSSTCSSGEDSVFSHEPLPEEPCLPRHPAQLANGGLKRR
Sequence of Epidermal growth factor receptor (Homo sapiens) (P00533 whole entry): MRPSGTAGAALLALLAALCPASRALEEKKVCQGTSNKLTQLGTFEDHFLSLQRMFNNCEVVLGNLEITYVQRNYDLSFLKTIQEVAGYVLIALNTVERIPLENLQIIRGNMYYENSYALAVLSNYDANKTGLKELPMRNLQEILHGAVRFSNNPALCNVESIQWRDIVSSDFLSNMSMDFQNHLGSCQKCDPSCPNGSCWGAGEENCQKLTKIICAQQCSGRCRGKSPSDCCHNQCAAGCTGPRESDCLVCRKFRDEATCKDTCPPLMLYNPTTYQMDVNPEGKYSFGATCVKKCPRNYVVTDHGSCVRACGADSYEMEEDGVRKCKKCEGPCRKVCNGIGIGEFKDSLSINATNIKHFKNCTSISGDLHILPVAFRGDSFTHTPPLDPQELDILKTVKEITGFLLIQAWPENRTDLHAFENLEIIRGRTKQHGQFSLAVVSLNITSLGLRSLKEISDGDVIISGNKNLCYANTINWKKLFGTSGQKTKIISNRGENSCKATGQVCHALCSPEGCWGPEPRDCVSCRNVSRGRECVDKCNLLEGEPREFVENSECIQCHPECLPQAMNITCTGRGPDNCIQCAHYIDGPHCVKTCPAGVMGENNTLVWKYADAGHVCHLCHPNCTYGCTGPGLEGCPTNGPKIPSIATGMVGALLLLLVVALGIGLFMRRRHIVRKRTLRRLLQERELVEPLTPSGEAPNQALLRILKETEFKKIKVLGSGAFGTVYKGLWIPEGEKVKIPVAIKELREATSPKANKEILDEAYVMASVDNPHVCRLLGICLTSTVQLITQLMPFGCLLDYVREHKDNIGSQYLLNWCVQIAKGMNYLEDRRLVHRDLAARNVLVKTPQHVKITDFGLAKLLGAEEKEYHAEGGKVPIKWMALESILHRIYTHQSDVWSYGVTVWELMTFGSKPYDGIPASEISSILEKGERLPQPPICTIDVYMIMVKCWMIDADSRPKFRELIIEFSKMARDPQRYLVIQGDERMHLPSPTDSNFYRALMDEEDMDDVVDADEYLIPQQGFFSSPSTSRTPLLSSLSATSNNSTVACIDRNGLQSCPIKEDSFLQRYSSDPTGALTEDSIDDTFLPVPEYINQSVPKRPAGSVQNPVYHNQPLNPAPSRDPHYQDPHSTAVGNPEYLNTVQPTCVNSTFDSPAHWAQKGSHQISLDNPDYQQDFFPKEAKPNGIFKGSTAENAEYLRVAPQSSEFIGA
Sequence of Receptor tyrosine-protein kinase erbB-2 (Homo sapiens) (P04626 whole entry): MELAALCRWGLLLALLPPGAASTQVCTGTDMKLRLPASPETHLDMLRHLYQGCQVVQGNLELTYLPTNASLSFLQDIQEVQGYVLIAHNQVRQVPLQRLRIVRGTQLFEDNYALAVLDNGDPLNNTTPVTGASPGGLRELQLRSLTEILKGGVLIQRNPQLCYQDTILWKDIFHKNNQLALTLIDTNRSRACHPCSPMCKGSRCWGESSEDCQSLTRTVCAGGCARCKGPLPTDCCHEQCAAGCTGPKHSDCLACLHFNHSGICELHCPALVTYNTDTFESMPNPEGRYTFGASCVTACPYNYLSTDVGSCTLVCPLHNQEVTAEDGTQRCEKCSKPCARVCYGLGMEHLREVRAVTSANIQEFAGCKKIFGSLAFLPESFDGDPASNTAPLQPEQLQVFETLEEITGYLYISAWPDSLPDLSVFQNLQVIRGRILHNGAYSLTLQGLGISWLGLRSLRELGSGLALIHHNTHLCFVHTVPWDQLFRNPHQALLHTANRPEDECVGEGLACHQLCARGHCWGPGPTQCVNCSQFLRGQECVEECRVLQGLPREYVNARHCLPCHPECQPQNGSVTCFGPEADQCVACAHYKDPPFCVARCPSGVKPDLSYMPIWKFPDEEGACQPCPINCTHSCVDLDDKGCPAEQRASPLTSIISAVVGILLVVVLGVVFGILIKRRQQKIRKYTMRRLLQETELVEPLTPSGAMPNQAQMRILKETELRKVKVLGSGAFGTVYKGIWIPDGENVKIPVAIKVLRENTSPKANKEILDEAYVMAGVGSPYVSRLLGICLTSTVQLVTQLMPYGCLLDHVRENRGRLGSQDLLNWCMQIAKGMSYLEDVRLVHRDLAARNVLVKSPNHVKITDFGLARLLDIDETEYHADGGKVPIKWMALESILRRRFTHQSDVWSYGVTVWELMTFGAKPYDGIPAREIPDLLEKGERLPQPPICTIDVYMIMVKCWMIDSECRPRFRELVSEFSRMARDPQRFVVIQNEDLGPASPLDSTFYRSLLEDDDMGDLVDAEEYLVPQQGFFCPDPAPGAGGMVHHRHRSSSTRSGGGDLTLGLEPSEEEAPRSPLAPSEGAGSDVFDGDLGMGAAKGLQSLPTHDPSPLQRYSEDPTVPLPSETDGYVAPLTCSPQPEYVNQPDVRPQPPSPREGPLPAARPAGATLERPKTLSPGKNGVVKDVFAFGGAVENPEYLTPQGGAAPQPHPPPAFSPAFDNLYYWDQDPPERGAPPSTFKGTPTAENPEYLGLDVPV
Sequence of Glycogen synthase kinase-3 beta (Homo sapiens) (P49841 whole entry, looked up): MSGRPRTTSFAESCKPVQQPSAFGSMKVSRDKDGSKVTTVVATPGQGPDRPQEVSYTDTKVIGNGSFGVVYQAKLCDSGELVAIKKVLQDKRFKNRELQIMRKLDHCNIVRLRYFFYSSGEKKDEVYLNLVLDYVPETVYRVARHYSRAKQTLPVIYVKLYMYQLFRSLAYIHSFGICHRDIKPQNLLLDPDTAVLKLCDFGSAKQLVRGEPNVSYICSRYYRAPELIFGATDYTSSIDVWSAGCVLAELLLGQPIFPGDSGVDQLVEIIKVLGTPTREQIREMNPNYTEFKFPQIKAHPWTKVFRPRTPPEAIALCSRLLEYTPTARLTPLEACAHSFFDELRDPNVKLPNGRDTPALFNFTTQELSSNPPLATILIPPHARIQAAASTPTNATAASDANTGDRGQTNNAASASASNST
Sequence of Receptor-type tyrosine-protein kinase FLT3 (Homo sapiens) (P36888 whole entry): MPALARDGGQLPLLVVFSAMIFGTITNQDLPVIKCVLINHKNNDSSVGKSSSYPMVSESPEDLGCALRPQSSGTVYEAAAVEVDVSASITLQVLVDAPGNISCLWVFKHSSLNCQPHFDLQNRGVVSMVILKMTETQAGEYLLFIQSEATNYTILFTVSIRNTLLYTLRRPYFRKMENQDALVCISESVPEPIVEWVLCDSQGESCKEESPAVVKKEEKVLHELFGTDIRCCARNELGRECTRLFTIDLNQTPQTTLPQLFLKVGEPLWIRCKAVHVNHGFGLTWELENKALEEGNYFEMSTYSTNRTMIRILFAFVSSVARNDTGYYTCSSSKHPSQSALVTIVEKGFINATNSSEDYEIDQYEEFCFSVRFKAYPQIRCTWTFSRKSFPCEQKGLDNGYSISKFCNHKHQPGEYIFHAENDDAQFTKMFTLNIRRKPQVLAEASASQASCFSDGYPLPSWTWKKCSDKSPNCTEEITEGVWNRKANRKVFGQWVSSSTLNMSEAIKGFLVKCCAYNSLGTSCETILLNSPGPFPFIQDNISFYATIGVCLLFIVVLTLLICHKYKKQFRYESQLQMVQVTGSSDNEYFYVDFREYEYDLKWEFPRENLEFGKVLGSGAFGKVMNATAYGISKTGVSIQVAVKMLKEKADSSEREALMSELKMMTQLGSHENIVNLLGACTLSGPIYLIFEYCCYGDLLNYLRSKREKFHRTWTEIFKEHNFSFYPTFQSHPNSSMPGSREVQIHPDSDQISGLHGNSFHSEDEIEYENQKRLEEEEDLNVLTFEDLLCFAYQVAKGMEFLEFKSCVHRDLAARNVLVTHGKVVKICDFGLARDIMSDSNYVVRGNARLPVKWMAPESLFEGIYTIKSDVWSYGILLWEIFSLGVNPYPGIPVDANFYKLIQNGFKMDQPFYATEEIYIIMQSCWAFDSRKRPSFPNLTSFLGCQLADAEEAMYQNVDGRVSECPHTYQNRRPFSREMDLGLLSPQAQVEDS
Sequence of Cyclin-dependent kinase 5 (Homo sapiens) (Q00535 whole entry, looked up): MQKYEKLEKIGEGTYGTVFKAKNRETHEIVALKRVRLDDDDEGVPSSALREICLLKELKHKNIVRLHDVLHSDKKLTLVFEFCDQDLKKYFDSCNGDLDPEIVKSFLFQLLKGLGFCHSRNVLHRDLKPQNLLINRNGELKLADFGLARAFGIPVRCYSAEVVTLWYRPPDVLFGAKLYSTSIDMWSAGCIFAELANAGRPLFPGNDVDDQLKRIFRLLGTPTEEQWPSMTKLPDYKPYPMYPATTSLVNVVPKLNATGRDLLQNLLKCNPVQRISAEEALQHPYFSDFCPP

For the molecule `COc1cccc(Nc2nnc(-c3c(NCc4ccncc4)ncn3C)o2)c1`, the Activity in series [1], in [6], in series [8], in [9], in [10] and in series [11] was below 30% throughout. For the same molecule, the Activity in [12], in [13], in series [14], in [16] and in series [17] was below 30% each time. The figures for the IC50 in [2], in [3] and in series [4] were 130 nM, 670 nM and 64 nM, respectively. The solubility (usually the dissolved amount per volume that the medium holds) in series [5] was above 5 mM. Besides, the Percent inhibition in series [7] and in [15] was below 30% in each case.
For the molecule `Cn1cnc(NCc2ccncc2)c1-c1nnc(Nc2ccc(OC(F)(F)Cl)cc2)o1`, the Activity in series [1], in series [6], in series [8], in series [9], in [10] and in series [11] was below 30% throughout. The Activity in series [12], in series [13], in series [14], in series [16] and in series [17] was below 30% in each case. Further, the IC50 (usually the concentration at which inhibition is half-maximal) stood at 130 nM in series [2], 460 nM in series [3] and 96 nM in series [4]. The same molecule gave a solubility in [5] above 5 mM. The Percent inhibition in series [7] and in series [15] was below 30% throughout.
As to `Cn1cnc(NCc2ccncc2)c1-c1nnc(Nc2ccc(OC(F)(F)F)cc2)o1`, the Activity in series [1], in series [6], in series [8], in series [9], in series [10] and in series [11] was below 30% in each case. For the same molecule, the Activity in [12], in series [13], in [14], in [16] and in [17] was below 30% in each case. Further, the IC50 in [2] worked out at 93 nM; in [3], 160 nM; in series [4], 66 nM. This molecule also came in with a solubility in series [5] above 5 mM. Further, the Percent inhibition in [7] and in [15] was below 30% each time.
Turning to `Cn1cnc(NCc2ccncc2)c1-c1nnc(Nc2ccc(C(C)(C)C)cc2)o1`, the Activity in series [1], in [6], in series [8], in series [9], in [10] and in series [11] was below 30% each time. Moreover, the Activity in series [12], in [13], in series [14], in series [16] and in series [17] was below 30% in each case. The IC50 was determined as 380 nM in [2], 890 nM in [3] and 1050 nM in [4]. The Percent inhibition in [7] and in [15] was below 30% in each case.
`Cn1cnc(NCc2ccncc2)c1-c1nnc(Nc2ccc(C(F)(F)F)cc2)o1`: the Activity in series [1], in [6], in series [8], in series [9], in series [10] and in [11] was below 30% each time. Besides, the Activity in [12], in series [13], in series [14], in series [16] and in series [17] was below 30% each time. The IC50 in [2] was 73 nM; in series [3] it was 120 nM; in [4], 82 nM. Further, the solubility in series [5] was above 5 mM. The Percent inhibition in series [7] and in [15] was below 30% each time.
As to `Cn1cnc(NCc2cccc3ncccc23)c1-c1nnc(Nc2ccc(Cl)cc2)o1`, the Activity in [1], in [6], in [8], in series [9], in series [10] and in series [11] was below 30% in each case. For the same molecule, the Activity in series [12], in [13], in series [14], in series [16] and in series [17] was below 30% in each case. The IC50 in [2] was 3540 nM; in [3], above 10000 nM; in [4], above 10000 nM. For the same molecule, the Percent inhibition in series [7] and in series [15] was below 30% each time.
For `CC(C)c1ccc(Nc2nnc(-c3c(NCc4ccncc4)ncn3C)o2)cc1`, the Activity in series [1], in series [6], in series [8], in series [9], in series [10] and in series [11] was below 30% throughout. Also, the Activity in series [12], in series [13], in series [14], in [16] and in series [17] was below 30% in each case. In addition, the IC50 in [2] turned out to be 440 nM; in [3] it was 770 nM; in [4], 1150 nM. Besides, the Percent inhibition in [7] and in series [15] was below 30% in each case.
As to `Cn1cnc(NCc2cccnc2)c1-c1nnc(Nc2ccc(Cl)cc2)o1`, the Activity in series [1], in series [6], in series [8], in [9], in [10] and in series [11] was below 30% each time. The Activity in series [12], in [13], in series [14], in [16] and in series [17] was below 30% in each case. Besides, the IC50 in series [2], in series [3] and in series [4] was above 10000 nM in each case. The Percent inhibition in series [7] and in [15] was below 30% in each case.
`Cn1cnc(NCc2ccncc2)c1-c1nnc(Nc2ccc(Cl)cc2)o1`: the Activity in series [1], in series [6], in series [8], in series [9], in series [10] and in series [11] was below 30% in each case. Further, the Activity in series [12], in series [13], in series [14], in series [16] and in series [17] was below 30% in each case. Moreover, the IC50 was 250 nM in series [2], 340 nM in [3] and 570 nM in series [4]. Besides, the Percent inhibition in series [7] and in series [15] was below 30% each time.
As to `Cn1cnc(NCCc2ccc3c(c2)OCO3)c1-c1nnc(Nc2ccc(Cl)cc2)o1`, the Activity in [1], in series [6], in [8], in series [9], in [10] and in [11] was below 30% each time. For the same molecule, the Activity in [12], in series [13], in series [14], in series [16] and in series [17] was below 30% each time. Moreover, the IC50 was 960 nM in [2], 1470 nM in [3] and above 10000 nM in series [4]. The Percent inhibition in series [7] and in series [15] was below 30% throughout.
